Data published in patent publication EP2161278B1, “Single-chain coiled coil scaffold” (Complix N.V., priority 2008, dated 2010).
“Also recorded” adds a separate entry of the source. Peptide text beside a SMILES is read from it.

Test: Thermal denaturation of trimeric coiled coil peptides by CD thermal scan (signal at 222 nm versus temperature, curve fitting)
Format: physicochemical
Conditions: for effect of core substitution on stability (transition temperature) compared to the reference peptide comprising isoleucine at positions 3a and 3d: core mutants at positions 3a and 3d of the reference peptide with glutamine at 2a, Figure 9
Procedure: The said synthesized peptide was dissolved at a concentration of 292 microM in 20 mM phosphate buffer (PBS), 150 mM NaCl, pH 7.2. The CD spectra were measured between […], at 5 and 90 degrees Celsius (Figure 3). The spectrum at 5 degrees Celsius was indicative of a high alpha-helical secondary structure content, in agreement with the expectation that all heptad regions, but not all of the flanking residues, would assemble as alpha-helical coiled coils.
To analyse whether the temperature-induced transition between helical and nonhelical states was reversible, a forward (up) and backward (down) thermal scan was performed on the same sample, by recording the CD signal at […] as a function of temperature at a scanning rate of about 1 degree Celsius per minute (Figure 4). It was observed that the up and down scans almost perfectly coincided, thereby confirming the quantitative unfolding and refolding of the peptides in the sample.
It was further analyzed whether the thermal unfolding curve of Figure 4 conformed to the thermodynamic equations describing the equilibrium folding/unfolding reaction between three molecules free (monomeric) peptide and one entity of folded (trimeric) complex. This reaction is generally written as 3 peptide <=> peptide3 wherein "<=>" refers to a chemical equilibrium, "peptide" to a monomeric peptide in solution and "peptide3" to a trimeric entity in the folded (assembled, associated) state. This thermal unfolding curve was fitted to the theoretic equations: θ(T) = θM (T) + (θT(T)-θM(T))(1+root(F(-(1)/(2)+sqrt((1)/(4) + (F)/(27))), 3)+root(F(-(1)/(2)-sqrt((1)/(4) + (F)/(27))), 3)) [formula] wherein F = (exp(-(ΔHt)/(RT)(1-T/T1)-(ΔCp)/(RT)(T-Tt-Tln(T/Tt))))/(4) [formula] and T≡ the temperature, in degrees Kelvin, of the sample θ(T)≡ the CD-signal [theta]222 nm, in deg cm^2 dmol^-1, as a function of T θM(T)≡ the CD-signal for 100% free (monomeric) peptide as a function of T θT(T) ≡ the CD-signal for 100% associated (trimeric) peptide as a function of T Tt ≡ the transition temperature, where 50% of the total peptide concentration is associated ΔHt ≡ the enthalpy difference, in kJ per mole peptide, between mono- and trimeric states ΔCp ≡ the heat capacity difference, in J mol^-1 K^-1, between mono- and trimeric states R ≡ the ideal (universal) gas constant ≡ 8.31 J mol^-1 K^-1
The global CD signal was somewhat lower than expected, which could be due to an instrumental deviation, an error in the concentration determination, a lower purity, or a lower than expected alpha-helical content. Nevertheless, the main goal of this experiment was to examine the effect of the glutamine-to-isoleucine mutant on the stability of the complex. […] The estimated transition temperature was around 97 degrees Celsius, although the latter was difficult to determine because of incompleteness of the transition.
All ten peptides were analyzed by thermal CD scanning as in Examples 3 and 4. Fitting of the thermal denaturation curves, as described in Example 3, gave the corresponding transition temperatures shown in Figure 9. […]

Structure (SMILES) | effect of core substitution on stability (transition temperature) compared to the reference peptide comprising isoleucine at positions 3a and 3d | also measured
CC[C@H](C)[C@H](NC(=O)[C@H](C)NC(=O)[C@H](C)NC(=O)[C@H](CCC(N)=O)NC(=O)[C@H](CCC(N)=O)NC(=O)[C@H](CCCCN)NC(=O)[C@H](CCC(N)=O)NC(=O)[C@@H](NC(=O)[C@H](CCC(=O)O)NC(=O)[C@H](CCC(=O)O)NC(=O)[C@@H](NC(=O)[C@H](CO)NC(=O)[C@H](CCSC)NC(C)=O)[C@@H](C)CC)[C@@H](C)CC)C(=O)N[C@@H](CCC(N)=O)C(=O)N[C@@H](CCCCN)C(=O)N[C@@H](CCC(N)=O)C(=O)N[C@H](C(=O)N[C@@H](C)C(=O)N[C@@H](C)C(=O)N[C@H](C(=O)N[C@@H](CCC(N)=O)C(=O)N[C@@H](CCCCN)C(=O)N[C@@H](CCC(N)=O)C(=O)N[C@H](C(=O)N[C@@H](Cc1ccc(O)cc1)C(=O)N[C@@H](CCCNC(=N)N)C(=O)N[C@@H](CCSC)C(=O)N[C@H](C(=O)N1CCC[C@H]1C(N)=O)[C@@H](C)O)[C@@H](C)CC)[C@@H](C)CC)C(C)C [3aV] (Ac-MSIEEIQKQQAAIQKQVAAIQKQIYRMTP-NH2) | moderately | –
CC[C@H](C)[C@H](NC(=O)[C@H](C)NC(=O)[C@H](C)NC(=O)[C@H](CCC(N)=O)NC(=O)[C@H](CCC(N)=O)NC(=O)[C@H](CCCCN)NC(=O)[C@H](CCC(N)=O)NC(=O)[C@@H](NC(=O)[C@H](CCC(=O)O)NC(=O)[C@H](CCC(=O)O)NC(=O)[C@@H](NC(=O)[C@H](CO)NC(=O)[C@H](CCSC)NC(C)=O)[C@@H](C)CC)[C@@H](C)CC)C(=O)N[C@@H](CCC(N)=O)C(=O)N[C@@H](CCCCN)C(=O)N[C@@H](CCC(N)=O)C(=O)N[C@@H](CCC(N)=O)C(=O)N[C@@H](C)C(=O)N[C@@H](C)C(=O)N[C@H](C(=O)N[C@@H](CCC(N)=O)C(=O)N[C@@H](CCCCN)C(=O)N[C@@H](CCC(N)=O)C(=O)N[C@H](C(=O)N[C@@H](Cc1ccc(O)cc1)C(=O)N[C@@H](CCCNC(=N)N)C(=O)N[C@@H](CCSC)C(=O)N[C@H](C(=O)N1CCC[C@H]1C(N)=O)[C@@H](C)O)[C@@H](C)CC)[C@@H](C)CC [3aQ] (Ac-MSIEEIQKQQAAIQKQQAAIQKQIYRMTP-NH2) | relatively strong | –
CC[C@H](C)[C@H](NC(=O)[C@H](C)NC(=O)[C@H](C)NC(=O)[C@@H](NC(=O)[C@H](CCC(N)=O)NC(=O)[C@H](CCCCN)NC(=O)[C@H](CCC(N)=O)NC(=O)[C@@H](NC(=O)[C@H](CCC(=O)O)NC(=O)[C@H](CCC(=O)O)NC(=O)[C@@H](NC(=O)[C@H](CO)NC(=O)[C@H](CCSC)NC(C)=O)[C@@H](C)CC)[C@@H](C)CC)[C@@H](C)CC)C(=O)N[C@@H](CCC(N)=O)C(=O)N[C@@H](CCCCN)C(=O)N[C@@H](CCC(N)=O)C(=O)N[C@H](C(=O)N[C@@H](C)C(=O)N[C@@H](C)C(=O)N[C@H](C(=O)N[C@@H](CCC(N)=O)C(=O)N[C@@H](CCCCN)C(=O)N[C@@H](CCC(N)=O)C(=O)N[C@H](C(=O)N[C@@H](Cc1ccc(O)cc1)C(=O)N[C@@H](CCCNC(=N)N)C(=O)N[C@@H](CCSC)C(=O)N[C@H](C(=O)N1CCC[C@H]1C(N)=O)[C@@H](C)O)[C@@H](C)CC)[C@@H](C)CC)[C@@H](C)CC [Q2aI] (Ac-MSIEEIQKQIAAIQKQIAAIQKQIYRMTP-NH2) | – | estimated transition temperature (292 microM peptide in 20 mM phosphate buffer (PBS), 150 mM NaCl, pH 7.2, CD signal at 222 nM, difficult to determine because transition incomplete): around 97 degrees Celsius; did not quantitatively unfold up to (CD thermal scan): 95 degrees Celsius; thermal stability (resistance against thermal denaturation), in words (CD thermal scan): extremely thermostable; also recorded: thermally stable; thermal stability (resistance against thermal denaturation), in words (CD thermal scan, listed as all-isoleucine core peptide): very high thermal stability; reversibility of thermal unfolding (down-scan recovery of the CD signal) (up and down thermal scan, about 1 degree Celsius per minute): full reversibility
CC[C@H](C)[C@H](NC(=O)[C@H](C)NC(=O)[C@H](C)NC(=O)[C@H](CCC(N)=O)NC(=O)[C@H](CCC(N)=O)NC(=O)[C@H](CCCCN)NC(=O)[C@H](CCC(N)=O)NC(=O)[C@@H](NC(=O)[C@H](CCC(=O)O)NC(=O)[C@H](CCC(=O)O)NC(=O)[C@@H](NC(=O)[C@H](CO)NC(=O)[C@H](CCSC)NC(C)=O)[C@@H](C)CC)[C@@H](C)CC)C(=O)N[C@@H](CCC(N)=O)C(=O)N[C@@H](CCCCN)C(=O)N[C@@H](CCC(N)=O)C(=O)N[C@H](C(=O)N[C@@H](C)C(=O)N[C@@H](C)C(=O)N[C@@H](CCC(N)=O)C(=O)N[C@@H](CCC(N)=O)C(=O)N[C@@H](CCCCN)C(=O)N[C@@H](CCC(N)=O)C(=O)N[C@H](C(=O)N[C@@H](Cc1ccc(O)cc1)C(=O)N[C@@H](CCCNC(=N)N)C(=O)N[C@@H](CCSC)C(=O)N[C@H](C(=O)N1CCC[C@H]1C(N)=O)[C@@H](C)O)[C@@H](C)CC)[C@@H](C)CC [3dQ] (Ac-MSIEEIQKQQAAIQKQIAAQQKQIYRMTP-NH2) | disruptive | –

Now from value to compound, other results behind:

effect of core substitution on stability (transition temperature) compared to the reference peptide comprising isoleucine at positions 3a and 3d | Structure (SMILES) | also measured
relatively strong | CC[C@H](C)[C@H](NC(=O)[C@H](C)NC(=O)[C@H](C)NC(=O)[C@H](CCC(N)=O)NC(=O)[C@H](CCC(N)=O)NC(=O)[C@H](CCCCN)NC(=O)[C@H](CCC(N)=O)NC(=O)[C@@H](NC(=O)[C@H](CCC(=O)O)NC(=O)[C@H](CCC(=O)O)NC(=O)[C@@H](NC(=O)[C@H](CO)NC(=O)[C@H](CCSC)NC(C)=O)[C@@H](C)CC)[C@@H](C)CC)C(=O)N[C@@H](CCC(N)=O)C(=O)N[C@@H](CCCCN)C(=O)N[C@@H](CCC(N)=O)C(=O)N[C@H](C(=O)N[C@@H](C)C(=O)N[C@@H](C)C(=O)N[C@H](C(=O)N[C@@H](CCC(N)=O)C(=O)N[C@@H](CCCCN)C(=O)N[C@@H](CCC(N)=O)C(=O)N[C@H](C(=O)N[C@@H](Cc1ccc(O)cc1)C(=O)N[C@@H](CCCNC(=N)N)C(=O)N[C@@H](CCSC)C(=O)N[C@H](C(=O)N1CCC[C@H]1C(N)=O)[C@@H](C)O)[C@@H](C)CC)C(C)C)[C@@H](C)CC [3dV] (Ac-MSIEEIQKQQAAIQKQIAAVQKQIYRMTP-NH2) | –
disruptive | CC[C@H](C)[C@H](NC(=O)[C@H](C)NC(=O)[C@H](C)NC(=O)[C@H](CCC(N)=O)NC(=O)[C@H](CCC(N)=O)NC(=O)[C@H](CCCCN)NC(=O)[C@H](CCC(N)=O)NC(=O)[C@@H](NC(=O)[C@H](CCC(=O)O)NC(=O)[C@H](CCC(=O)O)NC(=O)[C@@H](NC(=O)[C@H](CO)NC(=O)[C@H](CCSC)NC(C)=O)[C@@H](C)CC)[C@@H](C)CC)C(=O)N[C@@H](CCC(N)=O)C(=O)N[C@@H](CCCCN)C(=O)N[C@@H](CCC(N)=O)C(=O)N[C@@H](C)C(=O)N[C@@H](C)C(=O)N[C@@H](C)C(=O)N[C@H](C(=O)N[C@@H](CCC(N)=O)C(=O)N[C@@H](CCCCN)C(=O)N[C@@H](CCC(N)=O)C(=O)N[C@H](C(=O)N[C@@H](Cc1ccc(O)cc1)C(=O)N[C@@H](CCCNC(=N)N)C(=O)N[C@@H](CCSC)C(=O)N[C@H](C(=O)N1CCC[C@H]1C(N)=O)[C@@H](C)O)[C@@H](C)CC)[C@@H](C)CC [3aA] (Ac-MSIEEIQKQQAAIQKQAAAIQKQIYRMTP-NH2) | –
slightly stabilizing effect | CC[C@H](C)[C@H](NC(=O)[C@H](C)NC(=O)[C@H](C)NC(=O)[C@H](CCC(N)=O)NC(=O)[C@H](CCC(N)=O)NC(=O)[C@H](CCCCN)NC(=O)[C@H](CCC(N)=O)NC(=O)[C@@H](NC(=O)[C@H](CCC(=O)O)NC(=O)[C@H](CCC(=O)O)NC(=O)[C@@H](NC(=O)[C@H](CO)NC(=O)[C@H](CCSC)NC(C)=O)[C@@H](C)CC)[C@@H](C)CC)C(=O)N[C@@H](CCC(N)=O)C(=O)N[C@@H](CCCCN)C(=O)N[C@@H](CCC(N)=O)C(=O)N[C@H](C(=O)N[C@@H](C)C(=O)N[C@@H](C)C(=O)N[C@@H](CC(C)C)C(=O)N[C@@H](CCC(N)=O)C(=O)N[C@@H](CCCCN)C(=O)N[C@@H](CCC(N)=O)C(=O)N[C@H](C(=O)N[C@@H](Cc1ccc(O)cc1)C(=O)N[C@@H](CCCNC(=N)N)C(=O)N[C@@H](CCSC)C(=O)N[C@H](C(=O)N1CCC[C@H]1C(N)=O)[C@@H](C)O)[C@@H](C)CC)[C@@H](C)CC [3dL] (Ac-MSIEEIQKQQAAIQKQIAALQKQIYRMTP-NH2) | –
